Test: in vivo
Details: male, rat, in vivo; for AUC(0-t): AUC0-t of 100; for AUC(0-inf): AUC0-∞ of 100; for Cmax: Cmax of 100; for Tmax: Tmax of 100; for MRT: MRT of 100; for half-life: T1/2 of 100
Procedure: A pharmacokinetic study of 151 was conducted in SD rats. The study consisted of two dose levels at 1.0 (iv) and 10 (oral) mg/kg. The blood samples were collected at predetermined times from rats and centrifuged to separate plasma. An LC/MS/MS method was developed to determine the test article in plasma samples. The pharmacokinetic parameters of 151 following iv and oral administration to SD rats were calculated. The absolute bioavailability was evaluated.
The final concentration of the test article was 0.2 mg/mL for iv administration and 1.0 mg/mL for oral administration. The test article solutions were administered using the most recent body weight for each animal.
Blood (approximately 0.3 mL) were collected via orbital plexus into tubes containing sodium heparin at 0.25, 0.5, 1, 2, 3, 5, 7, 9, and 24 hours after oral administration; at 5 min, 15 min, 0.5, 1, 2, 3, 5, 7, 9 and 24 hours after iv administration. Samples were centrifuged for 5 min, at 4° C. with the centrifuge set at 11,000 rpm to separate plasma. The obtained plasma samples were stored frozen at a temperature of about −70° C. until analysis.
Frozen plasma samples were thawed at room temperature and vortexed thoroughly. With a pipette, an aliquot (30 μL) of plasma was transferred into a 1.5-mL conical polypropylene tube. To each sample, 160 μL of acetonitrile were added. The samples were then vigorously vortex-mixed for 1 min. After centrifugation at 11000 rpm for 5 min, a 15 μL aliquot of the supernatant was injected into the LC-MS/MS system for analysis.
Calibration standards were prepared by spiking 30 μL of the 151 standard solutions into 30 μL of heparinized blank rat plasma. The nominal standard concentrations in the standard curve were 1.00, 3.00, 10.0, 30.0, 100, 300, 1000 and 3000 ng/mL.
The analysis was performed using an LC-MS/MS system consisting of the following components—HPLC system: Agilent 1200 series instrument consisting of G1312B vacuum degasser, G1322A binary pump, G1316B column oven and G1367D autosampler (Agilent, USA); MS/MS system: Agilent 6460 triple quadrupole mass spectrometer, equipped with an APCI Interface (Agilent, USA); Data system: MassHunter Software (Agilent, USA).
Chromatographic separation was carried out at room temperature—Analytical column: C8 column (4.6 mm×150 mm I.D., 5 μm, Agilent, USA); Mobile phase: Acetonitrile:10 mM ammonium acetate (75:25, v/v); Flow rate: 0.80 mL/min; Injection volume: 15 μL.
The mass spectrometer was operated in the positive mode. Ionization was performed applying the following parameters: gas temperature, 325° C.; vaporizer temperature, 350° C.; gas flow, 4 L/min; nebulizer, 20 psi; capillary voltage, 4500 V; corona current, 4 μA. 151 was detected using MRM of the transitions m/z 283→m/z 123 and m/z 283→m/z 251, simultaneously. The optimized collision energies of 25 eV and 10 eV were used for m/z 123 and m/z 251, respectively.
Quantification was achieved by the external standard method. Concentrations of the test article were calculated using a weighted least-squares linear regression (W=1/x^2).
The pharmacokinetic parameters were evaluated using WinNonlin version 5.3 (Pharsight Corp., Mountain View, Calif., USA), assuming a non-compartmental model for drug absorption and distribution. • AUC0-t is the area under the plasma concentration-time curve from time zero to last sampling time, calculated by the linear trapezoidal rule. • AUC0-∞ is the area under the plasma concentration-time curve from time zero extrapolating to infinity. • T1/2 is the elimination half-life associated with the terminal (log-linear) elimination phase, which is estimated via linear regression of time vs. log concentrations. • CL is the total body clearance. • Vss is the volume of distribution at steady-state.

[1] = Sprague-Dawley (SD), iv, 1 mg/kg, Plasma Concentration of 100
[2] = Sprague-Dawley (SD), po, 10 mg/kg
[3] = Sprague-Dawley (SD), po, 10 mg/kg, Plasma Concentration of 100

Structure (SMILES): CN1CCN(C(=O)C2C3CCC(O3)C2C(=O)O)CC1 (centres unmarked) [Compound 100, 3-(4-methylpiperazine-1-carbonyl)-7-oxa-bicyclo[2,2,1]-heptane-2-carboxylic acid]
- concentration at 0.083 h [1]: 646 ng/mL
- concentration at 0.25 h [1]: 345 ng/mL
- concentration at 0.5 h [1]: 308 ng/mL
- concentration at 1 h [1]: 257 ng/mL
- concentration at 2 h [1]: 125 ng/mL
- concentration at 3 h [1]: 32.2 ng/mL
- concentration at 5 h [1]: 10.2 ng/mL
- AUC(0-t) [2]: 3370 ng·h/mL
- AUC(0-inf) [2]: 3430 ng·h/mL
- Cmax [2]: 1450 ng/mL
- concentration at 0.5 h [3]: 1450 ng/mL
- concentration at 1 h [3]: 1160 ng/mL
- concentration at 2 h [3]: 781 ng/mL
- concentration at 9 h [3]: 31.3 ng/mL
- Tmax [2]: 40.2 min
- AUC(0-t) (Sprague-Dawley, iv, 1 mg/kg): 681 ng·h/mL
- AUC(0-inf) (Sprague-Dawley, iv, 1 mg/kg): 694 ng·h/mL
- Cmax (Sprague-Dawley, iv, 1 mg/kg): 646 ng/mL
- MRT (Sprague-Dawley, iv, 1 mg/kg): 69.6 min
- half-life (Sprague-Dawley, iv, 1 mg/kg): 52.8 min
- Tmax (Sprague-Dawley, iv, 1 mg/kg): 4.98 min
- Cmax of 100 (Sprague-Dawley, po, 10 mg/kg): 1447 ng/mL
- Tmax of 100 (Sprague-Dawley, po, 10 mg/kg): 30 min
- AUC(0-t) (Sprague-Dawley, po, 10 mg/kg): 2800 ng·h/mL
- AUC(0-inf) (Sprague-Dawley, po, 10 mg/kg): 2860 ng·h/mL
- Cmax (Sprague-Dawley, po, 10 mg/kg): 1430 ng/mL
- MRT (Sprague-Dawley, po, 10 mg/kg): 126 min
- half-life (Sprague-Dawley, po, 10 mg/kg): 82.8 min
- Tmax (Sprague-Dawley, po, 10 mg/kg): 30 min
